The text below walks through data of publication PMC3605724 (Molecular pharmaceutics, 2013).

Series [1] deals with Caco-2 cell monolayers. The following applies: human, Caco-2, pH 7.5.
A short description of the next series: pKa. The series is classed as physicochemical.
A further series relates to rat small intestine. Particulars: cited from earlier work.
A short description of series [2]: Transport studies across Caco-2 cell monolayers. The following applies: human. On the technique in general: Passage across Caco-2 layers is used to estimate intestinal permeability.
The test system of series [3] is rat intestine (proximal jejunum and distal ileum). The series is described as follows: In situ single-pass intestinal perfusion. The class given is in vivo. The following applies: physiological vs alternate pH, HDS, n = 6.
The conditions of series [4]: cited from earlier work.
The test system of another series is P-gp. Particulars: cited from earlier work.
The test system of series [5] is Caco-2 cell monolayers. The series is described as follows: Transport studies across Caco-2 cell monolayers.
The next series has as its system Caco-2 cells. Particulars: Caco-2, initial concentration based on HDS in 250 ml water; cited from earlier work.

Where “and” joins values, the source holds several entries; their conditions need not be identical. Identical values can stand only once. Counter-ions that a name gives are not always drawn. Like-named read-outs stand apart in the source and are kept apart here.

For the molecule `CC(CCc1ccccc1)NCC(O)c1ccc(O)c(C(N)=O)c1` (stereo not drawn) [Labetalol], the “Increase in AP-BL direction transport caused by verapamil” value in the series on Caco-2 cell monolayers [1] is recorded as 1.5 times. The “Isoelectric point (maximum unionized fraction)” value in the series “pKa” turned out to be 8.4 pH. Further, the “Increase in apparent absorption rate constant of labetalol produced by verapamil” value with rat small intestine (highest labetalol concentration (100)) is recorded as “about 53%”. The “Increase in apparent absorption rate constant of labetalol produced by verapamil” value with rat small intestine (lowest labetalol concentration (10)) is listed as “about 84%”. The Papp at 120 min in series [2] (Caco-2, pH 6.5) is 5.96 ± 1.96 ×10⁻⁶ cm/s. Moreover, in series [2] (Caco-2, pH 7.5), the Papp A→B at 120 min, 120 μg/ml amounted to 14.2 ± 1.5 ×10⁻⁶ cm/s; the Papp B→A at 120 min, 120 μg/ml is 46.7 ± 6.5 ×10⁻⁶ cm/s; the Papp at 120 min turned out to be 15.9 ± 2.2 ×10⁻⁶ cm/s. Besides, the “Effect of change of pH (6.5 vs 7.5) on permeability in jejunum and ileum” value in series [3] is “did not significantly affect”. In addition, in series [4] (100 mg oral dose, healthy volunteers), the “Time to reach maximum plasma concentration (tmax)” value is 48 min. For the same molecule, the “Systemic BA (mean)” value in [4] (hypertensive subjects) is recorded as 33%. The “Dose excreted in the urine as unchanged drug” value in series [4] (man) is given as “up to 5%”. Moreover, the “Orally administered dose of radioactivity excreted by urine” value in series [4] (within 24 h, two subjects, 200 mg oral dose) is 55% and 60%.

Regarding `COCCc1ccc(OCC(O)CNC(C)C)cc1` (stereo not drawn) [Metoprolol], the “Interaction with P-gp” value with P-gp is “does not interact with P-gp”. Further, the Papp at 120 min in series [2] (Caco-2, pH 6.5) is 9.44 ± 3.44 ×10⁻⁶ cm/s; in series [2] (Caco-2, pH 7.5) it was 23.2 ± 7.1 ×10⁻⁶ cm/s. Moreover, the “Effect of verapamil on permeability in AP-BL and BL-AP directions” value with Caco-2 cell monolayers [5] (0.1 mM verapamil, 0.1 times HDS (40 μg/ml), AP pH 7.5) is “no effect”. Besides, the “Increase of ER under AP pH 6.5” value in the series on Caco-2 cell monolayers [5] (AP pH 6.5 compared with AP pH 7.5) was 3.6 times. The “Effect of change of pH (6.5 vs 7.5) on permeability in jejunum and ileum” value in series [3] is on record as “did not significantly affect”.

For `CC(CCc1ccccc1)NCC(O)c1ccc(O)c(C(N)=O)c1` (stereo not drawn) [labetalol hydrochloride], in series [4] (FDA product information of Trandate), the “Absorption from the GI tract” value is listed as “completely absorbed”.

`CCn1cc(C(=O)O)c(=O)c2cc(F)c(N3CCNC(C)C3)c(F)c21` (stereo not drawn) [lemofloxacin, lomefloxacin]: the “Permeability classification based on comparison to labetalol” value in the series on Caco-2 cells is reported as “high permeability”.

Usually Papp stands for a coefficient for how fast a substance crosses the barrier. Read a high Papp as ready permeation. What is called Papp A→B is how fast a substance crosses the layer from the apical side. Higher therefore signals fast passage. What is called Papp B→A is how fast a substance crosses the layer from the basolateral side.
